Results: paper PMC3185582 (Viruses, 2010)
Like-named read-outs stand apart in the source and are kept apart here.

Experiments:
vaccinia virus [1] = type: cell-based
cowpox virus = type: cell-based
in vivo [2] = details: both, cynomolgus, monkey
CYP2B6 = CYP2B6 (Homo sapiens, UniProt P20813); test: in vitro
CYP2E1 = CYP2E1 (Homo sapiens, UniProt P05181); test: in vitro
in vivo [3] = details: cynomolgus monkey
in vivo [4] = details: BALB/c, mouse, 30 mg/kg
[5] = test system: vaccinia virus in BSC-40 cell monolayers; type: cell-based
monkeypox virus [6] = test system: monkeypox virus; design: species or system cynomolgus macaques; details: cynomolgus monkey, in vivo
[7] = test system: variola virus clinical isolates; details: cited from earlier work
[8] = not given; remark: listed apart in the source
ectromelia virus = details: read-out: EC50 for inhibition of viral replication; cited from earlier work
unrelated viruses = details: read-out: EC50 for inhibition of viral replication; cited from earlier work
cytochrome P450 (CYP) = details: 10 μM (3,700 ng/mL)
vaccinia virus [9] = details: CPE assay; read-out: EC50 for inhibition of viral replication; cited from earlier work
variola virus [10] = details: cynomolgus monkey, in vivo, cited from earlier work
[11] = not given; remark: listed apart in the source
monkeypox virus [12] = test system: monkeypox virus; design: species or system prairie dogs; details: dog, in vivo
Rabbitpox = details: rabbit, in vivo, cited from earlier work
[13] = methanol, ethanol and acetonitrile
Vaccinia [14] = details: mouse, in vivo, po, 100 mg/kg
[15] = not given; remark: listed apart in the source
monkeypox virus [16] = details: cynomolgus monkey, in vivo, cited from earlier work
[17] = rat, mouse and dog microsomes
p37 with Rab9 and TIP47 = details: cited from earlier work
[18] = 12 daily doses of 300 mg/kg
Monkeypox = details: in vivo, cited from earlier work
[19] = single oral dose, tidal volume
Vaccinia [20] = details: mouse, in vivo, cited from earlier work
[21] = top dose 2000 mg/kg
in vivo [22] = details: Sprague-Dawley, rat, po, 30 mg/kg
orthopoxviruses = test system: orthopoxviruses; design: species or system mice; details: mouse, in vivo
[23] = test system: vaccinia virus in BSC-40 cell monolayers; details: 10 μM, 5 pfu/cell; ref Chen et al. [48]; cited from earlier work
vero and BSC40 cells = details: ST-246 treatment, 50 uM; unpublished work [21]
in vivo [24] = details: BALB/c, mouse
CYP1A2 = CYP1A2 (Homo sapiens, UniProt P05177); test: in vitro
[25] = test system: selected cell lines from mouse, rabbit, monkey, and humans; details: cited from earlier work
CYP2C19 = CYP2C19 (Homo sapiens, UniProt P33261); test: in vitro
[26] = not given; remark: listed apart in the source
[27] = monkey or human microsomes
[28] = mouse, in vivo
in vivo [29] = details: dog
variola virus [30] = test system: variola virus; design: species or system cynomolgus macaques; details: cynomolgus monkey, in vivo
CYP2C8 = CYP2C8 (Homo sapiens, UniProt P10632); test: in vitro
[31] = mouse, in vivo; remark: listed apart in the source
[32] = test system: monkeypox virus clinical isolates; details: cited from earlier work
Ectromelia = details: mouse, in vivo, cited from earlier work
Cowpox = details: mouse, in vivo, cited from earlier work
[33] = for increase in AUC values (accumulation): 28 day repeat dose study
[34] = 300 mg/kg, repeat dose studies
poxvirus = details: mouse, in vivo; cited from earlier work
[35] = by 96 hours after oral administration

Chain of CYP1A2 (P05177 whole entry): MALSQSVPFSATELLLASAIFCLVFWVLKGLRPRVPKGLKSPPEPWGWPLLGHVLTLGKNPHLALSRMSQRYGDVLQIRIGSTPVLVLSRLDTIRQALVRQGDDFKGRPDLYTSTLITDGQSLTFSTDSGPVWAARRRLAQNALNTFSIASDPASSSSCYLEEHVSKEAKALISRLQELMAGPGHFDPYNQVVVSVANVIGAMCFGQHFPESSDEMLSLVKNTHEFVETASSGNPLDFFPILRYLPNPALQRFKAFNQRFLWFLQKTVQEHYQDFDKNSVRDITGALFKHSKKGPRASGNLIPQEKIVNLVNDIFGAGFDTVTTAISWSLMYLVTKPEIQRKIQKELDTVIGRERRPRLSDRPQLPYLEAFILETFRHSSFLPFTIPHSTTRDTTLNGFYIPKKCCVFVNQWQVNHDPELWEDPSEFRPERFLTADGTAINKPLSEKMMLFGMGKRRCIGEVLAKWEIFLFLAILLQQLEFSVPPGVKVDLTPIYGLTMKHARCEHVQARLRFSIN
Chain of CYP2C19 (P33261 whole entry): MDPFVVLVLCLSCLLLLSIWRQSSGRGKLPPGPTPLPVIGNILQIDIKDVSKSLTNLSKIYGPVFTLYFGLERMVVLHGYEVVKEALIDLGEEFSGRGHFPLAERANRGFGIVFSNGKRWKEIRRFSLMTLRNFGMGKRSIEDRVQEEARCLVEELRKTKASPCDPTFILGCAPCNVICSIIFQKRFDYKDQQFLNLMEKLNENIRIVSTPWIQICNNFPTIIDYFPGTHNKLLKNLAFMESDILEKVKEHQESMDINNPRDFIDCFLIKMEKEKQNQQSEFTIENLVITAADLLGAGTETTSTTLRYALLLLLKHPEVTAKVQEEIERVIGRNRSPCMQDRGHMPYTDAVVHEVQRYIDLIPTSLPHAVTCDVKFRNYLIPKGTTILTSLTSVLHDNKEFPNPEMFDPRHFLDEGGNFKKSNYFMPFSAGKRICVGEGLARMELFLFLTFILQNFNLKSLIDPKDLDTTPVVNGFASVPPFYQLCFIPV
Chain of CYP2C8 (P10632 whole entry): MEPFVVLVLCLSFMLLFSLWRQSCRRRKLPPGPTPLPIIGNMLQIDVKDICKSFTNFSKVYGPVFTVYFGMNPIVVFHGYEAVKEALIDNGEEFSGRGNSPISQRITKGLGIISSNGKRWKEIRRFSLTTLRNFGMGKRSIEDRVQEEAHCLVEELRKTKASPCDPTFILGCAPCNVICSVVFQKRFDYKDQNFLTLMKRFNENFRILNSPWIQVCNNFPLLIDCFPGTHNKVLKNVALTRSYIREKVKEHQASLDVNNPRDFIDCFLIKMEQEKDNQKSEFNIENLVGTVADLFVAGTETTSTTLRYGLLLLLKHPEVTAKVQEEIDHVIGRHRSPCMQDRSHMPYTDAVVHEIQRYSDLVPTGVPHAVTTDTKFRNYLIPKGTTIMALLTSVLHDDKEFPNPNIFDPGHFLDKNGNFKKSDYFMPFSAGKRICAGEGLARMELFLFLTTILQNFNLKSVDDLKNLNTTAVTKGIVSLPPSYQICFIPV
Chain of CYP2E1 (P05181 whole entry): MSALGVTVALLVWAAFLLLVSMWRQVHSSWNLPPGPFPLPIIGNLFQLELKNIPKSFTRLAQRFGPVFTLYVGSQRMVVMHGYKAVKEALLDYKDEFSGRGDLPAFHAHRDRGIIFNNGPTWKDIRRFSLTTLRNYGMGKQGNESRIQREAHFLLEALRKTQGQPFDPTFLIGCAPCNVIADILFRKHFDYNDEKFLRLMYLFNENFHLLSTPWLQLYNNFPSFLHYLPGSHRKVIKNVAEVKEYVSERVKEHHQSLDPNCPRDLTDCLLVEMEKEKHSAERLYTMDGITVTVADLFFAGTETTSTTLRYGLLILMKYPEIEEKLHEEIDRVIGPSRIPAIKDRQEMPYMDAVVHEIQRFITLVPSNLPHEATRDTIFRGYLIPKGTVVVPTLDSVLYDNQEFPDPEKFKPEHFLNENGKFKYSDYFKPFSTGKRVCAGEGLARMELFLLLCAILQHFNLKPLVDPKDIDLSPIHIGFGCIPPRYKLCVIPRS
Chain of CYP2B6 (P20813 whole entry): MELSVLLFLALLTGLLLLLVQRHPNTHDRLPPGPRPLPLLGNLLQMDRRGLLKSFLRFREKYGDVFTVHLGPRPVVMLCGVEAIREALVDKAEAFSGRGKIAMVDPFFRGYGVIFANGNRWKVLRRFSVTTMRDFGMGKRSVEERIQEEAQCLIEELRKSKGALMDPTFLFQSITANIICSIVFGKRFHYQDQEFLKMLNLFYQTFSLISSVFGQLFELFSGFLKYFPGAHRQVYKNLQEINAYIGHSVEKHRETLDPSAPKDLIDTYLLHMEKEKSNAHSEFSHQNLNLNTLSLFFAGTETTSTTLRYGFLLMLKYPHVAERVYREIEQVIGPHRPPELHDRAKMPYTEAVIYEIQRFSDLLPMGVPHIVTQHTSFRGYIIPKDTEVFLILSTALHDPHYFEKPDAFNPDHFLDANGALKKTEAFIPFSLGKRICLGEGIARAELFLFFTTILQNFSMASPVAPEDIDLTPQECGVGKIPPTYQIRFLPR

## O=C(NN1C(=O)C2C3C=CC(C4CC34)C2C1=O)c1ccc([N+](=O)[O-])cc1 (centres unmarked) [4-nitrophenyl]
Vaccinia virus [1]
  fold more potent than the 4-dimethylaminophenyl analog: 100 fold
Cowpox virus
  fold more potent than the 4-dimethylaminophenyl analog: 100 fold

## O=C(NN1C(=O)[C@@H]2[C@@H]3C=C[C@@H]([C@H]4C[C@@H]34)[C@@H]2C1=O)c1ccc(C(F)(F)F)cc1 [ST-246, Tecovirimat]
Mammalian cell
  genotoxicity: not genotoxic
After oral administration
  time to nearly complete elimination of radioactivity: ≤ 96 h
[35]
  radioactivity eliminated in the urine: 24%
  radioactivity eliminated through the feces: approximately 72%
CYP 2C19
  CYP induction: induction was observed
In vivo [2]
  NOAEL: 2000 mg/kg
Cytochrome P450 isozymes
  metabolism by cytochrome P450 isozymes: not metabolized to any significant degree
CYP2B6
  inhibition at 300 µM: < 50%
CYP2E1
  inhibition at 300 µM: < 50%
CYP 2B6
  CYP induction: induction was observed
In vivo [3]; both, iv, 1 mg/kg
  clearance: ~18.3 mL/min/kg
In vivo [3]; fasted
  bioavailability: ~25%
In vivo [3]; fed state
  bioavailability: ~50%
In vivo [4]
  bioavailability: ~40%
bacterial
  genotoxicity: not genotoxic
[5]
  plaque formation: inhibits
Monkeypox virus [6]
  protection from lethal infection: protected animals from lethal infection
  protection from lethal infection, latest administration: as late as five days post-inoculation
[7]
  inhibition of clinical isolates in cell culture: inhibited
Caco-2
  Caco-2 membrane permeability: good
[8]; Segment II study, highest dose 100 mg/kg
  maternal toxicity: some maternal toxicity
[8]; rabbit, in vivo
  fertility, fetal resorptions, fetal abnormalities or toxicity: no evidence
Ectromelia virus
  EC50: 70 nM
Unrelated viruses
  EC50: > 40000 nM
Cytochrome P450 (CYP)
  cytochrome P450 (CYP) induction: no significant
Vaccinia virus [9]
  EC50: 10 nM
Variola virus [10]; po
  Optimal oral dose mg/kg, s.i.d.: 10 mg/kg
Variola virus [10]
  Time of treatment: 24 h.p.i. (100%)
  Time of treatment (% efficacy): 24 h.p.i. (100%)
[11]
  plasma protein binding: moderate to high
Monkeypox virus [12]
  protection from death: 100%
Rabbitpox; po
  Optimal oral dose mg/kg, s.i.d.: 40 mg/kg
Rabbitpox
  Time of treatment: 48 h.p.i. (100%)
  Time of treatment (% efficacy): 48 h.p.i. (100%)
[13]
  solubility in organic solvents: very soluble
Vaccinia [14]
  protection from systemic disease: protects mice from systemic disease
[15]; nursing dams
  radiolabel in the milk: < 1%
[15]; pregnant mice
  radiolabel in the placenta: only very low levels
Monkeypox virus [16]; po
  Optimal oral dose mg/kg, s.i.d.: 3 mg/kg
Monkeypox virus [16]
  Time of treatment: 96h.p.i. (100%)
  Time of treatment (% efficacy): 96h.p.i. (100%)
  protection from death: 100%
  protection from lethal infection: 100%
[17]
  cleavage liberating 4-trifluoromethylbenzoic acid: small amounts of ST-246 were cleaved
p37 with Rab9 and TIP47
  interaction of p37 with Rab9 and TIP47: blocks
[18]
  electroencephalograms and seizure thresholds: no evidence of altered electroencephalograms or lowered seizure thresholds
Monkeypox; po
  Optimal oral dose mg/kg, s.i.d.: 100 mg/kg
Monkeypox
  Time of treatment: 72 h.p.i. (100%)
  Time of treatment (% efficacy): 72 h.p.i. (100%)
[19]
  no observable effect level (NOEL): 2000 mg/kg
Vaccinia [20]; po
  Optimal oral dose mg/kg, s.i.d.: 100 mg/kg
Vaccinia [20]
  Optimal dose duration: >5 days (100%]
  Optimal dose duration (% efficacy): >5 days (100%]
[21]
  behavioral or other functional changes: did not elicit any
In vivo [22]; female
  bioavailability: 33%
In vivo [22]; male
  bioavailability: 90%
orthopoxviruses
  latest treatment initiation for full protection: ≤ 72 hours post-infection
orthopoxviruses; 100 mg/kg
  optimal dosing period: greater than seven days
orthopoxviruses; po
  optimal once per day oral dose for protective efficacy: 100 mg/kg
[23]
  extracellular virus (CEV and EEV) formation: inhibits
Vero and BSC40 cells
  growth of cells: not affected
In vivo [24]; 1000 mg/kg
  NOAEL at 3 months: 1000 mg/kg
In vivo [24]; 2000 mg/kg
  MTD: 2000 mg/kg
  MTD at 28 days: 2000 mg/kg
  NOAEL at 28 days: 2000 mg/kg
CYP1A2
  inhibition at 300 µM: < 50%
[25]
  CC50: > 50000 nM
CYP2C19
  inhibition at 300 µM: < 50%
[26]; 300 mg/kg
  clinical observations: ataxia was observed four hours post dose in one female NHP
[26]; 3 Month study
  NOEL: 300 mg/kg
[26]; 28 Day repeat dose study
  NOEL: 300 mg/kg
[26]; monkey
  multiple-dose NOEL: 300 mg/kg/day
[26]; single dose 1000 mg/kg
  clinical observations: This was also observed
[26]; single oral dose 2000 mg/kg, male and female
  clinical observations: decreased activity and ataxia
[27]
  cleavage metabolites: not seen
[28]
  chromosomal damage or bone marrow toxicity: did not cause
In vivo [29]
  MTD: 30 mg/kg
Variola virus [30]
  lesion numbers compared to placebo-treated animals: reduced lesion numbers
CYP2C8
  inhibition at 300 µM: < 50%
[31]
  fertility, fetal resorptions, fetal abnormalities or toxicity: no evidence
[32]
  inhibition of clinical isolates in cell culture: inhibited
Ectromelia; po
  Optimal oral dose mg/kg, s.i.d.: 100 mg/kg
Ectromelia
  Optimal dose duration: >5 days (100%)
  Optimal dose duration (% efficacy): >5 days (100%)
  Time of treatment: 72 h.p.i. (100%)
  Time of treatment (% efficacy): 72 h.p.i. (100%)
Cowpox; po
  Optimal oral dose mg/kg, s.i.d.: 100 mg/kg
Cowpox
  Optimal dose duration: >7 days (93%]
  Optimal dose duration (% efficacy): >7 days (93%]
  Time of treatment: 48 h.p.i. (93%)
  Time of treatment (% efficacy): 48 h.p.i. (93%)
[33]; 1000 mg/kg
  increase in AUC values (accumulation): approximately 25%
[33]; 2000 mg/kg
  increase in AUC values (accumulation): approximately 50%
[33]; once a day dosing
  terminal elimination half-life: approximately four
[34]
  QTc: no prolongation
poxvirus
  protection from lethal infection: protect
